Measured values as given in patent publication US11766649B2, “Coating method” (ASTON PARTICLE TECHNOLOGIES LIMITED, priority 2017, dated 2023).
Blank lines part the entries; values can stand above or below the molecule they belong to.

Assays:
Type in all cases: physicochemical
[1] = USP II basket dissolution of piroxicam/PVP powders in 0.1N hydrochloric acid; settings: 20 mg dose, 37° C., 50 rpm, end of the 4 h interval, FIG. 8
Procedure: (§1) The dissolution rate was analysed using standard USP II dissolution apparatus using the basket assembly dissolution vessels. Standard 20 mg dose powders were investigated to mimic a patient dose, with dissolution conditions maintained at 37° C. and the basket apparatus rotated at 50 rpm in 0.1N hydrochloric acid. Powders were placed in the basket and submerged in to the dissolution apparatus and ran over 4 h. Samples were taken at predetermined time intervals, with each sample volume replaced with the same amount of fresh dissolution media to maintain sink conditions. The samples were filtered appropriately and analysed for drug content using HPLC apparatus at each of the time points. All results were taken in triplicate, and are represented in FIG. 8.

[2] = USP II basket dissolution of flucloxacillin sodium/polymer powders in pH 6.8 phosphate buffer; settings: 250 mg dose, 37° C., 50 rpm, 60 mins, FIG. 13
Procedure: as §1, with “250” for “20”, “pH 6.8 phosphate buffer.” for “0.1N hydrochloric acid.”, “60 mins.” for “4 h.”, “and are represented in FIG. 8.” left out

[3] = USP II basket dissolution of carbamazepine/PVP powders in distilled water; settings: 200 mg dose, 37° C., 50 rpm, over the 4 h time period, FIG. 7
Procedure: as §1, with “200” for “20”, “distilled water.” for “0.1N hydrochloric acid.”, “7.” for “8.”

[4] = Dissolution of carbamazepine dry coated with micronized sodium lauryl sulphate (FIG. 10)
[5] = USP II basket dissolution of phenytoin/PVP powders in distilled water; settings: 200 mg dose, 37° C., 50 rpm, 4 h, FIG. 9
Procedure: as §1, with “200” for “20”, “distilled water.” for “0.1N hydrochloric acid.”, “9.” for “8.”

- drug release [1]: 29.7%
Compound: CN1C(C(=O)Nc2ccccn2)=C(O)c2ccccc2S1(=O)=O [control piroxicam, piroxicam]

- release of flucloxacillin sodium [2]: full release within a minute
Compound: Cc1onc(-c2c(F)cccc2Cl)c1C(=O)N[C@@H]1C(=O)N2[C@@H]1SC(C)(C)[C@@H]2C(=O)O [flucloxacillin sodium]

- drug release [3]: very poor release
Compound: NC(=O)N1c2ccccc2C=Cc2ccccc21 [micronized carbamazepine, carbamazepine]

- drug release [4]: around 38%
Compound: NC(=O)N1c2ccccc2C=Cc2ccccc21 [off the shelf carbamazepine (CBZ), carbamazepine]

- release [5]: 4.7%
Compound: O=C1NC(=O)C(c2ccccc2)(c2ccccc2)N1 [phenytoin alone, phenytoin]
